According to article PMC4958244 (mBio, 2016):

Assays:
[1] = molecular target: T1, N-Als3p (Candida albicans, UniProt Q59L12); assay: CFG glycan array v5.[…]; type: binding; settings: glycan printed on glass slide, N-Als3p NT-647 labelled
T1 construct: gene ALS3; N-terminal part (Ig-like adhesin domain); recombinant, purified from S. cerevisiae or E. coli as previously described

[2] = molecular target: Mucin, partially purified from porcine stomach (porcine); assay: SPR; Biacore 3000, 25°C; FN, mucin or laminin covalently immobilised on a CM5 chip by amine coupling, adhesin domain flowed over; dissociation constants in the equilibrium state
[3] = molecular target: T2, N-Epa1p (Nakaseomyces glabratus, UniProt Q6VBJ0); assay: SPR inhibition of binding to immobilised mucin; settings: competition with porcine stomach mucin, lactose 6 µM to 1.5 mM, 25°C
T2 construct: gene EPA1; N-terminal PA14-like lectin domain; recombinant, purified from S. cerevisiae or E. coli as previously described
T2 sequence (Q6VBJ0 entry or part of it): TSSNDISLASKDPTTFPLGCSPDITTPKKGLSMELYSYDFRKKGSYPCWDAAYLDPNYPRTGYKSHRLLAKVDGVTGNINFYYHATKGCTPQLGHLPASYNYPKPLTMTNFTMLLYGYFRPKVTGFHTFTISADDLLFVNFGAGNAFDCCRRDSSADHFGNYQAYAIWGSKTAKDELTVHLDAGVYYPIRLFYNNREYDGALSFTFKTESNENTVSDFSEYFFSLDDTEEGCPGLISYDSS

[4] = molecular target: Laminin, from human placenta (human); assay: SPR; Biacore 3000, 25°C; FN, mucin or laminin covalently immobilised on a CM5 chip by amine coupling, adhesin domain flowed over; dissociation constants in the equilibrium state
[5] = molecular target: T1, N-Als3p; assay: SPR, immobilised BSA-GlcNAc; type: binding; settings: GlcNAc shown as BSA glycoconjugate on CM5 chip, 25°C
[6] = molecular target: Fibronectin (FN) (UniProt P02751 32-2477); assay: SPR; Biacore 3000, 25°C; FN, mucin or laminin covalently immobilised on a CM5 chip by amine coupling, adhesin domain flowed over; dissociation constants in the equilibrium state; settings: both partners purified
Fibronectin (FN), sequence (P02751 32-2477): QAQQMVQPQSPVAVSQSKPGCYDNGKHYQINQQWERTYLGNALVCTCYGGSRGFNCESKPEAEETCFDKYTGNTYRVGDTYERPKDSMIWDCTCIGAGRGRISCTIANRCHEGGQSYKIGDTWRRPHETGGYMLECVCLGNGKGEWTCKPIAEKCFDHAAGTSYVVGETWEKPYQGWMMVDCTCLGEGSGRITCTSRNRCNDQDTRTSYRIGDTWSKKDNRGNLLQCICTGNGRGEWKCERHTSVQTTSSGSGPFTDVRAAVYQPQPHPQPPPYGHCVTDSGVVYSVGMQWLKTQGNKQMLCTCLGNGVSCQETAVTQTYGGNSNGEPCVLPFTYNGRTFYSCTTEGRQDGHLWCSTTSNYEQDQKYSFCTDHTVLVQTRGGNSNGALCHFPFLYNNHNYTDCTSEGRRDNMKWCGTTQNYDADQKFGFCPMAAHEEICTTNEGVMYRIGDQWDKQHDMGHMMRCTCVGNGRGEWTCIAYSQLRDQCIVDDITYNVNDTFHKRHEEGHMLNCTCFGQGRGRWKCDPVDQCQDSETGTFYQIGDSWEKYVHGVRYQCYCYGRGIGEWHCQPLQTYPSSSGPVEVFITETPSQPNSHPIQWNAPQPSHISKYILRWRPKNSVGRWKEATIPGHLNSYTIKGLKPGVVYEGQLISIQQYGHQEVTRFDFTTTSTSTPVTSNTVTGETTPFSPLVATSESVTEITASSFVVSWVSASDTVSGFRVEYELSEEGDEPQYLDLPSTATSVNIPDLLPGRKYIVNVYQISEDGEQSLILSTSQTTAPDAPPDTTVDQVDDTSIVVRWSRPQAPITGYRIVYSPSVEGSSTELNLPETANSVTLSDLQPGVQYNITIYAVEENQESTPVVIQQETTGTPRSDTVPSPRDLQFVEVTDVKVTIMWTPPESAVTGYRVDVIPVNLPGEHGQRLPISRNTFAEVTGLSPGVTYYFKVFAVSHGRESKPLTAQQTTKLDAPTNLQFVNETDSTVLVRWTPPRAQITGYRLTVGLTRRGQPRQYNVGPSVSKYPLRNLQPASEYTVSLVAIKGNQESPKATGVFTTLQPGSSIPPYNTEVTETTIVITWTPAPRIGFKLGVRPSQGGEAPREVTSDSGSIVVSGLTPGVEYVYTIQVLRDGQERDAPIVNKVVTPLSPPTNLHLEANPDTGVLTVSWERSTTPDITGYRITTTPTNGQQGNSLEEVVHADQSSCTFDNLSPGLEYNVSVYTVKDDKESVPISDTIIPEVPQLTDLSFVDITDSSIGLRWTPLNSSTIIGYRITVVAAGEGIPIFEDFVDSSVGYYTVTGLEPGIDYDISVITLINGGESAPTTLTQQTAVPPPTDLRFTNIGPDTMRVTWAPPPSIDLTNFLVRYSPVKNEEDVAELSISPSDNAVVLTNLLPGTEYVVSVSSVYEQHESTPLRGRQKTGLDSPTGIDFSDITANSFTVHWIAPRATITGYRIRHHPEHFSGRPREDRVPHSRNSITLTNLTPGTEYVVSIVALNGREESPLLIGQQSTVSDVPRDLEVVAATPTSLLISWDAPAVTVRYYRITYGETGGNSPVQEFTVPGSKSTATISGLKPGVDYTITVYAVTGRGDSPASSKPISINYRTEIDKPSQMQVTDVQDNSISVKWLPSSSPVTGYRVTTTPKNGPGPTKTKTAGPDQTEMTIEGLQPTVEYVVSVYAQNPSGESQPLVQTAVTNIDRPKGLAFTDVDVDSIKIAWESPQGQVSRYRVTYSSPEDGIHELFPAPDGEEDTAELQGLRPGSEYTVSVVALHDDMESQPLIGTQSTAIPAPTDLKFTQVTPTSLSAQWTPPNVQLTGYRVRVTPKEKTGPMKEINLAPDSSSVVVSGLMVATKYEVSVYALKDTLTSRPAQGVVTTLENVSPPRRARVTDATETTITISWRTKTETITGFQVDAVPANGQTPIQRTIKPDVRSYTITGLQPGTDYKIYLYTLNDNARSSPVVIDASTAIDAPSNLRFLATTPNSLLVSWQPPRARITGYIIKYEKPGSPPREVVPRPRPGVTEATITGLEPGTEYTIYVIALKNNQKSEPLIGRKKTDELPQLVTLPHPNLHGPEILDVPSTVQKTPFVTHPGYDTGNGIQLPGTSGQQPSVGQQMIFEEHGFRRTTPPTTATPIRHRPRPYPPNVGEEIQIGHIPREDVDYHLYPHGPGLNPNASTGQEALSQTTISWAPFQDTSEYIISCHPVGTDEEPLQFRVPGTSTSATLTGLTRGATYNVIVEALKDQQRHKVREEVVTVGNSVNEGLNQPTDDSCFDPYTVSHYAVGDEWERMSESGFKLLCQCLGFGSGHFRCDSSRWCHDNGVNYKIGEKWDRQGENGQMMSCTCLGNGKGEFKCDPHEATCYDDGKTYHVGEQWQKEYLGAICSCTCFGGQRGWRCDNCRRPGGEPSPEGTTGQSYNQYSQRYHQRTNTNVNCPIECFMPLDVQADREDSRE

CC(=O)N[C@H]1[C@H](O[C@H]2[C@@H](O)[C@@H](CO)OC(O)[C@@H]2O)O[C@H](CO)[C@H](O)[C@@H]1O[C@@H]1O[C@H](CO)[C@H](O)[C@H](O)[C@H]1O[C@@H]1O[C@@H](C)[C@@H](O)[C@@H](O)[C@@H]1O (some centres unmarked) [Fucα-1,2-Galβ-1,3-GalNAcβ-1,3-Gal]
CFG glycan array v5.0 ([1]; 200 µg/ml): GlcNAcβ-1,3GalNAc and Fucα-1,2-Galβ-1,3-GalNAcβ-1,3-Gal were also recognized

N-terminal domain of Epa1p from Candida glabrata (N-Epa1p) (domain or fragment)
Kd [2]: 4.67 µM

CC(=O)N[C@H]1C(O)O[C@H](CO)[C@H](O)[C@@H]1O[C@@H]1O[C@H](CO)[C@H](O)[C@H](O)[C@H]1O (some centres unmarked) [T antigen]
CFG glycan array v5.0 ([1]; 200 and 20 µg/ml): N-Als3p bound also to the T antigen

OC[C@H]1O[C@@H](O[C@H]2[C@H](O)[C@@H](O)C(O)O[C@@H]2CO)[C@H](O)[C@@H](O)[C@H]1O (some centres unmarked) [lactose]
SPR inhibition of binding to immobilised mucin [3]: binding of N-Epa1p to mucin could be blocked by lactose in a concentration-dependent manner

N-terminal part of Als3p from Candida albicans (N-Als3p) (domain or fragment)
Kd [4]: 410 µM

CC(=O)N[C@H]1[C@H](O[C@H]2[C@@H](O)[C@@H](CO)OC(O)[C@@H]2NC(C)=O)O[C@H](CO)[C@@H](O)[C@@H]1O (some centres unmarked) [GlcNAcβ-1,3GalNAc]
CFG glycan array v5.0 ([1]; 200 µg/ml): GlcNAcβ-1,3GalNAc and Fucα-1,2-Galβ-1,3-GalNAcβ-1,3-Gal were also recognized

CC(=O)N[C@H]1C(O)O[C@H](CO)[C@@H](O)[C@@H]1O (some centres unmarked) [GlcNAc]
SPR, immobilised BSA-GlcNAc [5]: SPR experiments confirmed the binding of N-Als3p to GlcNAc

B1: N-terminal part of Als3p from Candida albicans (N-Als3p) (domain or fragment)
chain: KTITGVFNSFNSLTWSNAATYNYKGPGTPTWNAVLGWSLDGTSASPGDTFTLNMPCVFKFTTSQTSVDLTAHGVKYATCQFQAGEEFMTFSTLTCTVSNTLTPSIKALGTVTLPLAFNVGGTGSSVDLEDSKCFTAGTNTVTFNDGGKKISINVDFERSNVDPKGYLTDSRVIPSLNKVSTLFVAPQCANGYTSGTMGFANTYGDVQIDCSNIHVGITKGLNDWNYPVSSESFSYTKTCSSNGIFITYKNVPAGYRPFVDAYISATDVNSYTLSYANEYTCAGGYWQRAPFTLRWTGYRNSDAGSNGIVIVATTRTVTDSTTAVTTLPFDPNRDKTKTIEILKPIPTTTITTSYVGVTTSYSTKTAPIGETATVIVDIPYHTTTTVTSKWTGTITSTTTHTNPTDSIDTVIVQVP
modifications: Secreted from S. cerevisiae, C-terminal His tag omitted. The strain of the allele is not given; the SC5314 reference entry is used. Limits 18-432 are printed in Text S1.
Kd [6]: 10 ± 1 µM
